From US20120116095A1, “GLYCINE TRANSPORTER INHIBITORS” (TAISHO PHARMACEUTICAL C0., LTD., priority 2009, published 2012)
pIC50: −log10 of the molar value.

Legend:
P-glycoprotein (P-gp) = target: T1, P-glycoprotein (P-gp) (Homo sapiens, UniProt P08183); assay: Test for substrate recognition by P-gp (LLC-GA5-COL300 cells); assay type: in vitro ADME; conditions: 10 μM, Human MDR1-expressing LLC-GA5-COL300 cells, Apical to Basolateral and Basolateral to Apical
T1 construct: expressed in transfected cells; host or cells: LLC-GA5-COL300 (pig kidney LLC-PK1 cells expressing human MDR1)
T1 sequence (P08183 whole entry): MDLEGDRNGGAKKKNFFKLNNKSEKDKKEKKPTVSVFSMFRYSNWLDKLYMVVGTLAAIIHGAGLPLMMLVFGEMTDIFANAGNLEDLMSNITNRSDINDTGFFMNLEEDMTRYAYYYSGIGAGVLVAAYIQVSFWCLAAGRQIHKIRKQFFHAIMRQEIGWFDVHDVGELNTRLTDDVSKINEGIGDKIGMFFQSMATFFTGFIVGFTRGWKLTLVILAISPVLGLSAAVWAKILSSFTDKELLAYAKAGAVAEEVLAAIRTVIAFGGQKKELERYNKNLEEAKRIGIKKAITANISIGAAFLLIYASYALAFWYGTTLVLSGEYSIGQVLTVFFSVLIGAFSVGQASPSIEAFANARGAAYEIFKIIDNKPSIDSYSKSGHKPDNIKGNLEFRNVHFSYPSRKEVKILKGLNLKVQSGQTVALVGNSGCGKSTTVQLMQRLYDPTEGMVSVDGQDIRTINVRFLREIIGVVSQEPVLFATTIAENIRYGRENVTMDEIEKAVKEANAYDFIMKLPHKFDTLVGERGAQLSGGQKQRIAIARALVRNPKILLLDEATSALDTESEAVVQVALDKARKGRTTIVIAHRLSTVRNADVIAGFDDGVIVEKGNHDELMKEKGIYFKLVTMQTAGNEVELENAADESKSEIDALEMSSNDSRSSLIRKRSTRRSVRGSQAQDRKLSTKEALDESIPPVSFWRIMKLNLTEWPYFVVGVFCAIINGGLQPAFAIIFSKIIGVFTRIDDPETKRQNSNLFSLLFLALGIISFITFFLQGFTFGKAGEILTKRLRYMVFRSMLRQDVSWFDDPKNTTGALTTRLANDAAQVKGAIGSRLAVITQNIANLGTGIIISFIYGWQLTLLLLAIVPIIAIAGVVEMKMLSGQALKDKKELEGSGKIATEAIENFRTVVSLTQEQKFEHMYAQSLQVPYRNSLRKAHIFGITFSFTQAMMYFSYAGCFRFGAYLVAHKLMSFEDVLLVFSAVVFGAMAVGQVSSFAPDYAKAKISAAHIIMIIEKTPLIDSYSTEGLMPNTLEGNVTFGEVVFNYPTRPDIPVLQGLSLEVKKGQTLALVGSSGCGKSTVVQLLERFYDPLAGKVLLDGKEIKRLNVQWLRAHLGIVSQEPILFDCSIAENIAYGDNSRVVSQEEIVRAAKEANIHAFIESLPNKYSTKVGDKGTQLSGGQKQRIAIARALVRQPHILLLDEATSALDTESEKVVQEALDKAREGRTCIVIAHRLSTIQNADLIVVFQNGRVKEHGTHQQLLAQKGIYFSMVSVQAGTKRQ
Text: In the case of drugs that act on the central nervous system, it is generally important for such drugs to be transferred from blood into brain for development of their efficacy. In the blood-brain barrier, there is found P-glycoprotein (P-gp), which is a typical member of the efflux transporters that control drug penetration; and P-gp inhibits the penetration of its substrate drugs into the brain. Thus, in developing a drug, recognition performance as a P-gp substrate can be used as an indicator of brain penetration.
A test for substrate recognition by P-gp was conducted as described in J. Pharmacol. Exp. Ther. (1992) Vol. 263, No. 2, 840-845 and J. Biol. Chem. (1992) Vol. 267, No. 34, 24248-24252. Specifically, LLC-GA5-COL300 cells (i.e., a Human MDR1-expressing system originating from a pig kidney-derived cultured renal epithelial cell line, LLC-PK1) were used after being cultured for 4 days on trans wells, and the medium in each well was replaced by Hank's balanced salt solution (HBSS) immediately before use in the test. After a test compound solution (i.e., a DMSO solution of a test compound, which was further diluted with HBSS and adjusted to a final concentration of 10 μM) was added to the Donor side of the LLC-GA5-COL300 cells, aliquots of HBSS were sampled over time from the Acceptor side to determine the test compound concentration in each collected sample by LC-MS/MS.
The membrane permeability coefficient (×10^−6 cm/sec) was calculated by the accumulated amount of the compound into the Acceptor side for both directions, Apical to Basolateral and Basolateral to Apical. and the ratio of these coefficients (Efflux Ratio) was then used to evaluate substrate recognition by P-gp.

male Sprague-Dawley rats = assay: Social recognition test (MK-801-treated rats); assay type: in vivo; conditions: rat; for Ratio (second exploration time/first exploration time): MK-801 0.1 mg/kg i.p.
Description: This experiment was performed using male Sprague-Dawley rats according to the reported method (Shimazaki et al., Psychopharmacology, 209, 263-270, 2010). Adult rats (9 weeks old) received intraperitoneal administration of MK-801 (0.1 mg/kg), and were immediately placed in test cages and acclimated for 30 minutes. Thereafter, juvenile rats (4 weeks old) were placed in the same test cages, where juvenile rats and adult rats were left for 5 minutes, during which the time it took for the adult rats to show social behavior (sniffing, grooming, following) to the juvenile rats was measured (first exploration time). Then, the juvenile rats were removed from the test cages and returned to their home cages. After 30 minutes, the same juvenile rats that were used in the first exploration were placed in the test cages, and the time it took for the adult rats to show social behavior (sniffing, grooming, following) to the juvenile rats during a 5-minute period was measured (second exploration time). The social recognition was expressed as the ratio of second exploration time to first exploration time. The test substance (Compound 10) was orally administered one hour before the start of first exploration. The vehicle group was administered a 0.5% methyl cellulose solution.

[1] = target: T2, human type 1 glycine transporter (GlyT1) (Homo sapiens, UniProt P48067); assay: Glycine uptake inhibition experiment ([3H]glycine uptake in T98G cells); assay type: cell-based; conditions: [3H]glycine 250 nM, 15 min, room temperature, read-out: glycine uptake inhibitory activity (IC50 value)
T2 construct: Glioma T98G cells endogenously expressing human type 1 glycine transporter (GlyT1) were used; endogenous in cells; host or cells: T98G human glioma cells
T2 sequence (P48067 1-706): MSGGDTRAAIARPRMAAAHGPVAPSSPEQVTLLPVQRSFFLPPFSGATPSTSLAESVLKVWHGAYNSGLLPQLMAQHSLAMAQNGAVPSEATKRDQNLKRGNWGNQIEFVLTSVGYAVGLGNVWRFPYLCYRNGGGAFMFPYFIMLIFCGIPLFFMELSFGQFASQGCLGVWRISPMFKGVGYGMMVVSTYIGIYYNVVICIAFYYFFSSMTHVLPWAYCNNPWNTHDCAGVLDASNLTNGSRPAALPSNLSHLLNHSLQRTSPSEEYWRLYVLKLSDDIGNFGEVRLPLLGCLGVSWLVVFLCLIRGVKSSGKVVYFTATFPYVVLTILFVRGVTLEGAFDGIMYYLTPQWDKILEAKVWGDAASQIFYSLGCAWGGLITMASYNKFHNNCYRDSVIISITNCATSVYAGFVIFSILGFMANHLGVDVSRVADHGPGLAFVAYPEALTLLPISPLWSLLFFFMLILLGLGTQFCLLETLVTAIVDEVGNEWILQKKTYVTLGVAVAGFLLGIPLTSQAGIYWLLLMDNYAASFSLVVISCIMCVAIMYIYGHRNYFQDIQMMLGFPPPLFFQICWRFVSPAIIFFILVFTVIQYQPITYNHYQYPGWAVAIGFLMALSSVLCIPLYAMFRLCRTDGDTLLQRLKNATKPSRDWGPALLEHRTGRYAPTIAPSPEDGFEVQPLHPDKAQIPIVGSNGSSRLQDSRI
Description: A glycine uptake experiment was conducted as described in Neuron, 8, 927-935, 1992. Glioma T98G cells endogenously expressing human type 1 glycine transporter (GlyT1) were used. T98G cells were seeded in a 96-well plate at 2.0×10^4 cells/well and cultured overnight in a CO2 incubator. A test compound was dissolved in a 100% DMSO solution and then dissolved in 10 mM HEPES buffer (pH 7.4) containing 150 mM sodium chloride, 1 mM calcium chloride, 5 mM potassium chloride, 1 mM magnesium chloride, 10 mM glucose and 0.2% bovine serum albumin. After removing the cell culture medium, the cells were pre-treated with the test compound for 10 minutes. Subsequently, the test compound and [^3H]glycine (final concentration: 250 nM) were added to the cells and incubated at room temperature for 15 minutes. After the incubation, the extracellular solution was aspirated with a manifold to remove the excess labeled glycine existing outside the cells, and the cells were then lysed with 0.5 M aqueous sodium hydroxide. The amount of glycine uptake was determined by measuring radioactivity in the cell lysate using a liquid scintillation counter. Glycine uptake in the presence of 10 μM ALX5407 was defined as non-specific uptake, and the value calculated by subtracting this non-specific uptake from the total uptake in the absence of 10 μM ALX5407 was defined as specific uptake. Moreover, an inhibition curve was obtained for each test compound at concentrations of […] to calculate the glycine uptake inhibitory activity (IC50 value) of each test substance.
It should be noted that ALX5407 is a HCl salt of N-[(3R)-3-([1,1′-biphenyl]-4-yloxy)-3-(4-fluorophenyl)propyl]-N-methylglycine.

## CC(C)N(Cc1ccc(F)c(-c2ccc(OC(F)(F)F)cc2)c1)C(=O)c1cn(C)cn1 [Compound 10, N-{[6-Fluoro-4′-(trifluoromethoxy)biphenyl-3-yl]methyl}-1-methyl-N-(propan-2-yl)-1H-imidazole-4-carboxamide]
P-glycoprotein (P-gp)
  recognition as a P-gp substrate (Efflux Ratio criteria): not to be recognized as a P-gp substrate
Male Sprague-Dawley rats; 0.1 mg/kg orally one hour before first exploration, p<0.05
  Ratio (second exploration time/first exploration time): 0.65 ± 0.05 ^p<0.05
Male Sprague-Dawley rats; 0.3 mg/kg orally one hour before first exploration, p<0.01
  Ratio (second exploration time/first exploration time): 0.60 ± 0.06 ^p<0.01
Male Sprague-Dawley rats; compared to the vehicle group, oral
  effect on cognitive functions (social recognition, in words): enhancing effect on cognitive functions
[1]
  pIC50: 7.83
